# PubChem BioAssay AID2305 (GlaxoSmithKline (GSK), 2010)
# Test system: P. falciparum 3D7 growth, pLDH absorbance
# Test: P. falciparum 3D7 growth inhibition, dose response, strain 3D7 (AID 2305)
row,Structure (SMILES),IC50 [nM]
1,O=C(Nc1ccsc1)Nc1cccc(-c2ccc(-c3nc4ccc(C(F)(F)F)cc4[nH]3)cc2)c1,350
2,COc1ccc2c(c1)S(=O)(=O)N=C(N1CCCC1c1ccc(Cl)c(Cl)c1)N2C (stereo not drawn),1280
3,COc1ccc2nccc([C@@H](O)CN3CCC(NC(=O)c4cc5c(F)cc(F)cc5[nH]4)CC3)c2c1,240
4,CCC(C(=O)Nc1cc(=O)[nH]c2nc(-c3ccco3)nn12)c1ccccc1 (stereo not drawn),840
5,CCCN1CCN(CC(O)CNC(=O)Nc2ccc(Br)cc2)CC1 (stereo not drawn),60
6,Clc1ccc2c(NCCCCCCCCNc3ccnc4cc(Cl)ccc34)ccnc2c1,480
7,O=C(Nc1ccccc1)N(Cc1cccc(-c2cccc(CNCCc3ccccc3)c2)c1)C1CCN(Cc2ccccc2)CC1,310
8,Nc1ncc(-c2ccccc2)cc1/C=C/c1cccnc1,1120
9,Nc1nc(N)c2cc(CNc3ccc(Cl)c(Cl)c3)ccc2n1,1020
10,CC(C)Oc1cc2c(cc1NS(=O)(=O)c1ccc(-c3ccc(Cl)s3)cc1F)CCN(C)CC2,710
11,CNC(=O)c1cnc(Nc2ccc3[nH]c(=O)[nH]c3c2)nc1Nc1cccc(OC(C)C)c1,930
12,COCCCNC(=O)c1ccc(O)c(-c2cc(Cl)cc(Cl)c2)c1,920
13,O=C(NCc1ccc(C(=O)N2CCC(N3CCCCC3)CC2)cc1)c1cc(-c2cccc(C(F)(F)F)c2)ccc1O,820
14,Cc1ccc(O)c(-c2cc(C(=O)Nc3ccc(S(=O)(=O)N4CCCCC4)cc3)[nH]n2)c1,810
15,c1ccc(CN2CCC(NCc3ccccc3-c3cccc(CNCc4ccc5c(c4)OCO5)c3)CC2)cc1,570
16,COc1ccc(-c2ccc([N+](=O)[O-])cc2C(=O)NCC(C)Oc2ccc(C(F)(F)F)cc2)cc1 (stereo not drawn),550
17,COc1ccc(CN2CCC(CNCCc3ccccc3Oc3ccccc3)CC2)cc1,1100
18,CSc1nc2cc3c(cc2n1C(=O)c1ccc(C)cc1)OCCO3,170
19,COc1ccc(C(=O)CCC(=O)N(CCSC(C)(C)C)Cc2ccc(-c3ccc(CNCCc4ccc(S(C)(=O)=O)cc4)cn3)cc2)cc1F,630
20,COc1cccc2c(NN=Cc3ccc([N+](=O)[O-])cc3)ccnc12,890
21,Cc1[nH]c(C)c(-c2ccc(C(F)(F)F)cc2)c(=O)c1Br,140
22,COC(=O)c1cc(OC2CCOC2=O)cc2c1OC(C)(C)O2 (stereo not drawn),810
23,Cc1ccccc1C1CCN(C2CCC(NC(=O)c3ccc(-c4ccccc4F)o3)CC2)CC1 (stereo not drawn),1050
24,O=C(NCC1CCN(Cc2ccsc2)C1)c1cc(-c2cccc(C(F)(F)F)c2)cs1 (stereo not drawn),700

row,Structure (SMILES),IC50 [nM]
1,Cc1nc(C)c(-c2ccc(Oc3ccc(OC(F)(F)F)cc3)cc2)c(OC(=O)c2ccccc2)c1Cl,180
2,CCCCc1ccc(NC(=O)Nc2cccc(CCNCc3ccccc3)c2)cc1,880
3,COc1ccc(S(=O)(=O)Nc2cc(Br)cc3c2OCCC3)cc1N1CCN(C(=O)C(Cl)(Cl)Cl)CC1,870
4,Nc1c2c(nc3ccc(NC(=O)CCCCCc4ccccc4)cc13)CCCC2,440
5,CC1c2cccc(O)c2CCN1CCc1ccc(Cl)c(Cl)c1 (stereo not drawn),140
6,CC(=O)Nc1ncc(C(=O)Nc2cccc(-c3cccc(-c4nc5c(C)cccc5[nH]4)c3)c2)s1,350
7,CC(=O)N[C@H](C(=O)Nc1cccc(-c2ccc(-c3nc4c(C)cccc4[nH]3)s2)c1)C(C)C,760
8,COc1ccc2nccc([C@@H](O)CN3CCC(NC(=O)/C=C/c4cc([N+](=O)[O-])ccc4OC)CC3)c2c1,260
9,OCCNc1nc(Nc2ccc(Cl)cc2)nc2ccccc12,710
10,CCCC1N=C(N)N=C(N)N1c1ccccc1 (stereo not drawn),820
11,Cc1cccc2[nH]c(-c3ccc(-c4cccc(NC(=O)C(C)CN5CCN(C)CC5)c4)cc3)nc12 (stereo not drawn),740
12,CC(C)C[C@H](Nc1ccc(C#N)c2ccccc12)C(=O)N[C@@H]1CCCc2ccccc21,760
13,CC(C)(C)c1ccc(CN2CCC(CNC(=O)c3cc(-c4ccccc4)nc4ccccc34)CC2)cc1,1020
14,CCC(C)(C)c1ccc(S(=O)(=O)Nc2ccc(Cl)c(OCCN3CCCCC3)c2)cc1,1110
15,COc1ccc(C2C(C(=O)Nc3ccccc3)=C(C)Nc3c(C(=O)Nc4ccccc4)cnn32)cc1 (stereo not drawn),1310
16,Nc1nc(N)c2nc(C3CC=CCC3)c(N)nc2n1 (stereo not drawn),160
17,Cc1cc(-c2nc3cncc(-c4cccc(CN5CCCC5Cc5cccnc5)c4)c3n2C)nn1C (stereo not drawn),130
18,Cc1cc(N[C@@H](Cc2ccccc2)C(=O)NCc2cccc(F)c2)nc(NCCCOC(C)C)n1,920
19,CN1CCN(CCCNCc2cccc(Nc3nccc(Nc4ccc(Oc5ccccc5)cc4)n3)c2)CC1,760
20,O=C(Nc1cccc(CN2CCCN(Cc3ccc(F)cc3)CC2)c1)c1cc2ccccc2s1,790
21,COc1ccc2nccc([C@@H](O)CN3CCC(NC(=O)/C=C/c4ccc5ccccc5n4)CC3)c2c1,990
22,Oc1cccc(CNCCCN(Cc2ccccc2)c2ccccc2)c1,600
23,CN=C(NO)NCCN(C)C,1180
24,O=C(NCCCN(Cc1ccc(F)cc1)c1ccccn1)C(c1cc2ccccc2o1)N1CCN(C(c2ccccc2)c2ccccc2)CC1 (stereo not drawn),840
